These are literature values, as cited in patent EP1362518A1, “Food product providing sustained blood levels of exogenous substances” (NESTEC S.A., priority 2002, dated 2003).

One data set concerns dogs. To be noted: 100mg/kg/d (caffeine/body weight/day) consumed for more than 3 days.
Assay in data set [1]: not given
The source holds these as a separate data set.

Turning to `Cn1c(=O)c2c(ncn2C)n(C)c1=O` [caffeine], where the note is “in vivo”, the “threshold value for stimulation” value is on record as “about 2 mg/l blood plasma” and the “threshold value of stimulation” value is recorded as “about 2 mg/l plasma”. Moreover, where the note is “side effects above this range”, the “upper end of the desired range” value was “about 20 mg/l blood plasma”. Further, the death result with dogs is “death can occur”. Moreover, the half-life of caffeine in data set [1] (adults) was 3 to 7 h. The “time of peak in caffeine level in blood” value in data set [1] (after consumption of a cup of coffee) was “about an hour”.
